Results reported in US20060051295A1, “Estrogen receptor interaction with a transcription factor” (priority 2002, published 2006).

How the values were obtained:
cRel + ER beta = assay: Transrepression of c-Rel induced reporters, U-2 OS co-transfected with ERβ; assay type: cell-based, human
Procedure: Next was determined whether transrepression by ER is limited to particular NF-κB types, such as c-Rel or RelA, by overexpression of these NF-κB proteins in U-2 OS cells (Table 2). Again, the promoter-reporter constructs for the E-selectin, ICAM and VCAM genes were used in these experiments. Significant activation of these reporters by overexpression of c-Rel was observed. This activation was strongly and reproducibly transrepressed by both ERα and ERβ (Table 2).
Table 2. Estrogen-dependent transrepression of the promoters from E-selectin, VCAM and ICAM and a synthetic NF-κB responsive reporter, measured as the amount of luciferase activity. Transient (co-)transfections of ERα (or ERβ) and reporter were performed in U-2 OS cells. Reporter activity was induced by cellular exposure to Il-1β or by co-transfection of the NF-κB genes c-Rel or RelA. […] For detailed information on the composition of the reporters used, see appendix 1. The hyphen (-) in the table indicates the test with cells without transfected cDNA and no additives in medium; n.d. means: not determined.
For transient transfections, cells were seeded in 6-well plates (2.10^5 cells/well). After two or three days the cells were transfected with reporter, expression vectors and β-galactosidase control vector. Two different experimental settings were used. For testing transrepression of IL-1β induced promoter activity, cells were transfected with 1 μg reporter construct, 1 μg expression vector (containing either ERα, ERβ or GR), and 0.25 μg of β-galactosidase control plasmid. For testing transrepression in combination with c-Rel or ReLA overexpression, cells were transfected with 1 μg reporter construct, 1 μg expression vector (containing either ERα, ERβ or GR) and 0.1 or 1.0 μg expression vector containing c-Rel or RelA and 0.25 μg of β-galactosidase control vector. Equivalent amounts of DNA were obtained by adding the appropriate expression vector that lacks an insert. Transient transfection was performed using lipofectin reagent (Life Technologies). […] The transfected cells were incubated overnight with test compounds prior to cell lysis. Measurement of luciferase and P-galactosidase activity were performed using respectively the luciferase assay system (Promega) and Galacto-light plus (Tropix) according to the manufacturers' protocols and measured on the Victor 1420 multilabel counter, Wallac. Detection of β-galactosidase activity was used as a control for transfection efficiency.

IL-6 production = assay: IL-6 secretion by U-2OS cells stably expressing ERα (sandwich ELISA); assay type: cell-based, human; details: U-2OS-ERα, IL-1β 125 pg/ml + IFNγ 10 ng/ml
Description: Estrogens maintain the balance between bone resorption and formation by inhibiting the production of cytokines by osteoblasts that stimulate osteoclast activity and thus bone resorption. We analysed the relevance of ER NF-κB transrepression on IL-6 production in more depth. When the pre-osteoblast cell line U-2 OS was stimulated with cytokines such as IL-1β, production of endogenous IL-6 protein is increased. However, when U-2OS cells are also exposed to IL-1β and estrogens, the increased production of IL-6 is repressed [Table 8].
Numbers are luminescence in counts per sec reflecting IL-6 produced by the cells
Secretion of endogenously produced IL-6 was measured by sandwich ELISA as outlined in Material and Methods.
For studying repression of human IL-6 secreted by U-2 OS cells that stably overexpress ERα (U-2 OS-ERα cells) a standard sandwich ELISA was used (ELISA kit of R&D systems #DY206). Cells were plated in 24 or 96 wells plates in M505+dextran-coated charcoal stripped serum (i.e. 10% BCTS) and allowed to grow to 90% confluency.
ELISA was performed according to the protocol of the manufacturer and as briefly described below. After overnight incubation of the cells with compounds in the appropriate concentration, the supernatants were transferred to 96 wells plates that had been coated overnight with anti-IL-6 capture antibody. Captured IL-6 was subsequently detected using a biotinylated anti-IL-6 detection antibody and Streptavidin-AP. Il-6 concentrations per well were subsequently quantified using the chemoluminescent substrate CSPD (Elisa-Light™, #EL100CY, Tropix), after which luminescence was determined in a Victor multilabel counter (Wallac).

`C[C@]12CC[C@@H]3c4ccc(O)cc4CC[C@H]3[C@@H]1CC[C@@H]2O` [Org E2, 17β-estradiol] was tested, and the “luciferase activity, ELAM+ reporter” value (cRel + ER beta) was 3708, the “luciferase activity, ELAM− reporter” value (cRel + ER beta) was 1495 and the “luciferase activity, ICAM reporter” value (cRel + ER beta) was 1611. The “luciferase activity, VCAM reporter” value (cRel + ER beta) was 882, the “Il-6 production (luminescence)” value (IL-6 production; E2 0.001 nM) was 136039 counts per sec and the “Il-6 production (luminescence)” value (IL-6 production; E2 0.01 nM) was 79230 counts per sec. The “Il-6 production (luminescence)” value (IL-6 production; E2 0.1 nM) was 50375 counts per sec and the “Il-6 production (luminescence)” value (IL-6 production; E2 1 nM) was 41070 counts per sec.
